From US7781439B2, “Pyrazolopyrimidines” (Bayer CropScience AG, priority 2005, dated 2010)
Like-named read-outs stand apart in the source and are kept apart here. Marks after values point to notes of the source that are not given here. Blank lines part the entries; values can stand above or below the molecule they belong to.

Experiments:
A375 cells = assay: LIVE/DEAD cytotoxicity assay, inhibition of cell proliferation, A375; type: cell-based, human; conditions: for GI50: Homo sapiens, read-out: log GI50 values (M), A375 cells (converted)
Experimental: (§1) Compounds of the present invention were tested for a possible cytotoxic or proliferation-inhibiting activity on the human tumour cell lines HeLa, SW620 and A375 (all from ATCC, American Type Culture Collection). To this end, the cells were plated in microtitre plates from Greiner (manufacturer No. 781092) at a cell density of 1000 cells/microtitre plate well and cultivated in cell culture medium at 37° C. under a 5% carbon dioxide atmosphere. Cell culture media and additives were purchased from Invitrogen and the foetal calf serum from Biochrom. The cell culture media for HeLa and A375 cells were used as stated by ATCC (HeLa: MEM, order No. 10370-047, with 1% sodium bicarbonate, 1% non-essential amino acids, 1% sodium pyruvate, 10% foetal calf serum, 0.1% gentamycin; A375: DMEM, order No. 41965-039, 2% sodium bicarbonate, 1% L-Glutamax, 10% foetal calf serum, 0.1% gentamycin). The culture medium for the SW620 cells consisted of DMEM, order No. 41965-039, 1% non-essential amino acids, 10% foetal calf serum, 0.1% gentamycin.
(§2) 24 hours after the cells had been plated in the microtitre plates, various concentrations of at most 100 μM down to a minimum concentration of 5 nM of the test compounds were added to the cells. Stock solutions of the test compounds (10 mM) were prepared in DMSO and stored at −20° C. For the cytotoxicity tests, the test compounds were diluted in the appropriate cell culture medium.
(§3) After a further 48 hours of incubation, the cells were washed with medium and analysed with the aid of a two-colour fluorescence cytotoxicity/viability test (LIVE/DEAD Viability/Cytotoxicity ASSAY Kit from Molecular Probes, order No. L-3224), according to the instructions of the manufacturer. To this end, the medium was aspirated and in each case 30 μl of LIVE/DEAD reagent per microtitre plate well were added to the cells, which were then incubated for 30 minutes. The cells were then washed with PBS (phosphate-buffered saline). The number of live cells was analysed by measuring the green fluorescence of the live dye calcein-AM as a component of the LIVE/DEAD reagent using a fluorescence plate reader (Flexstation, from Molecular Devices) at an excitation wavelength of 485 nm and an emission wavelength of 525 nm (Oral et al. 1998). Cells only with cell culture medium, without added test compounds, were treated in parallel and analysed as growth controls. The reference compounds used for anti-tumour agents having a cytotoxic or proliferation-inhibiting action were colchicine (from Merck/Calbiochem, order No 234115) and Taxol (baccatin III N-benzyl-b-phenylisoserine ester, from Merck/Calbiochem, order No. 580555) (Schiff and Horwitz 1980; Holmes et al., 1991). The cytotoxic effects of the test compounds were expressed as logarithmic GI50 values ((growth)-inhibiting logarithmic concentration value at which a cell growth reduced by 50% compared to the control without test compounds was measured; Xia et al., 2001; Smith et al., 2005).

SW620 cells = assay: LIVE/DEAD cytotoxicity assay, inhibition of cell proliferation, SW620; type: cell-based, human; conditions: for GI50: Homo sapiens, read-out: log GI50 values (M), SW620 cells (converted)
Experimental: as §1, §2, §3

HeLa cells = assay: LIVE/DEAD cytotoxicity assay, inhibition of cell proliferation, HeLa; type: cell-based, human; conditions: for GI50: Homo sapiens, read-out: log GI50 values (M), HeLa cells (converted)
Experimental: as §1, §2, §3

log P determination = type: physicochemical
[1] = A375 cells, 48 hours incubation, calcein-AM fluorescence
[2] = SW620 cells, 48 hours incubation, calcein-AM fluorescence
[3] = HeLa cells, 48 hours incubation, calcein-AM fluorescence
[4] = values marked *, no footnote carries the single asterisk, general footnote: HPLC gradient method, acetonitrile/0.1% aqueous phosphoric acid
[5] = EEC Directive 79/831 Annex V. A8 by HPLC (gradient method, acetonitrile/0.1% aqueous phosphoric acid)

- log p (log P determination; [4]): 3.56*
Structure (SMILES): C[C@H](Nc1c(-c2c(F)cc(F)cc2Cl)c(Cl)nc2c(C(=O)NS(C)(=O)=O)cnn12)C(F)(F)F [Example 117]
- log GI50 values (M), A375 cells (A375 cells; [1]): 6.6 M
- log GI50 values (M), SW620 cells (SW620 cells; [2]): 6.6 M
- log GI50 values (M), HeLa cells (HeLa cells; [3]): 6.8 M

- log p (log P determination; [4]): 3.85*
Structure (SMILES): CC(C)[C@@H](C)Nc1c(-c2c(F)cc(F)cc2F)c(Cl)nc2c(C(=O)NS(C)(=O)=O)cnn12 [Example 177]
- log GI50 values (M), A375 cells (A375 cells; [1]): 8.1 M
- log GI50 values (M), SW620 cells (SW620 cells; [2]): 6.7 M
- log GI50 values (M), HeLa cells (HeLa cells; [3]): >8 M

- log p (log P determination; values marked *, HPLC, gradient method, acetonitrile/0.1% aqueous phosphoric acid, EEC Directive 79/831 Annex V. A8): 3.24*
Structure (SMILES): CC(C)Nc1c(-c2c(F)cc(F)cc2F)c(Cl)nc2c(C(=O)NS(C)(=O)=O)cnn12 [Example 345]
- log GI50 values (M), A375 cells (A375 cells; [1]): 6.3 M
- log GI50 values (M), SW620 cells (SW620 cells; [2]): 6.4 M
- log GI50 values (M), HeLa cells (HeLa cells; [3]): 6.6 M

Structure (SMILES): CC(=O)O[C@H]1C(=O)[C@@]2(C)[C@H]([C@H](OC(=O)c3ccccc3)[C@]3(O)C[C@H](OC(=O)[C@H](O)[C@@H](NC(=O)c4ccccc4)c4ccccc4)C(C)=C1C3(C)C)[C@]1(OC(C)=O)CO[C@@H]1C[C@@H]2O [Taxol, reference compound]
- GI50 (A375 cells; A-375, A375 cells, 48 hours incubation, calcein-AM fluorescence): 2e-07 M
- GI50 (SW620 cells; SW-620, SW620 cells, 48 hours incubation, calcein-AM fluorescence): 1.26e-07 M
- GI50 (HeLa cells; [3]): 1.58e-08 M

Structure (SMILES): COc1cc2c(c(OC)c1OC)-c1ccc(OC)c(=O)cc1[C@@H](NC(C)=O)CC2 [colchicine, reference compound]
- GI50 (A375 cells; A-375, 48 h): 2e-08 M
- GI50 (SW620 cells; SW-620, 48 h): 3.16e-08 M
- GI50 (HeLa cells; HeLa, 48 h): 1.58e-08 M

- log p (log P determination; [5]): 4.69
Structure (SMILES): CC(Nc1c(-c2ccc(F)cc2Cl)c(Cl)nc2c(C(=O)Nc3ccn(C)n3)cnn12)C(C)(C)C (centres unmarked) [compound 1185]

- log p (log P determination; [5]): 4.18
Structure (SMILES): CC(C)C(C)Nc1c(-c2ccc(F)cc2Cl)c(Cl)nc2c(C(=O)Nc3ccnn3C)cnn12 (centres unmarked) [compound 1186]

- log p (log P determination; [5]): 4.26
Structure (SMILES): CC(Nc1c(-c2ccc(F)cc2Cl)c(Cl)nc2c(C(=O)Nc3cnn(C)c3)cnn12)C(C)(C)C (centres unmarked) [compound 1187]

- log p (log P determination; [5]): 3.62
Structure (SMILES): CC(C)C(C)Nc1c(-c2ccc(F)cc2Cl)c(Cl)nc2c(C(=O)Nc3ncn(C)n3)cnn12 (centres unmarked) [compound 1188]

- log p (log P determination; [5]): 3.95
Structure (SMILES): CC(C)C(C)Nc1c(-c2ccc(F)cc2Cl)c(Cl)nc2c(C(=O)Nc3cnn(C)c3)cnn12 (centres unmarked) [compound 1189]

- log p (log P determination; [5]): 3.87
Structure (SMILES): CC(C)C(C)Nc1c(-c2ccc(F)cc2F)c(Cl)nc2c(C(=O)NS(C)(=O)=O)cnn12 (centres unmarked) [compound 1190]

- log p (log P determination; [5]): 3.91
Structure (SMILES): CC(Nc1c(-c2ccc(F)cc2Cl)c(Cl)nc2c(C(=O)Nc3ncn(C)n3)cnn12)C(C)(C)C (centres unmarked) [compound 1191]

- log p (log P determination; [5]): 3.89
Structure (SMILES): CC1CCN(c2c(-c3ccc(F)cc3Cl)c(Cl)nc3c(C(=O)Nc4ncn(C)n4)cnn23)CC1 [compound 1192]

- log p (log P determination; [5]): 4.47
Structure (SMILES): CC1CCN(c2c(-c3ccc(F)cc3Cl)c(Cl)nc3c(C(=O)Nc4ccnn4C)cnn23)CC1 [compound 1193]

- log p (log P determination; [5]): 4.76
Structure (SMILES): Cc1ccc(-c2c(Cl)nc3c(C(=O)NS(C)(=O)=O)cnn3c2NC(C)C(C)(C)C)c(Cl)c1 (centres unmarked) [compound 1194]

- log p (log P determination; [5]): 4.66
Structure (SMILES): CC1CCN(c2c(-c3ccc(F)cc3Cl)c(Cl)nc3c(C(=O)Nc4ccn(C)n4)cnn23)CC1 [compound 1195]

- log p (log P determination; [5]): 4.31
Structure (SMILES): CC1CCN(c2c(-c3ccc(F)cc3Cl)c(Cl)nc3c(C(=O)Nc4cnn(C)c4)cnn23)CC1 [compound 1196]

- log p (log P determination; [5]): 4.11
Structure (SMILES): CC1CCN(c2c(-c3ccc(F)cc3Cl)c(Cl)nc3c(C(=O)Nc4ncn[nH]4)cnn23)CC1 [compound 1197]

- log p (log P determination; HPLC (gradient method), starting materials and intermediates, log P / log P*, read-out: log P): -0.07
Structure (SMILES): COC(=O)c1cn[nH]c1N [methyl 5-amino-1H-pyrazole-4-carboxylate]
